In paper PMC4965010 (PLoS ONE, 2016):
Like-named read-outs stand apart in the source and are kept apart here. Marks after values point to notes of the source that are not given here.

Biological target: T1, human FXIIIa (Homo sapiens, UniProt P00488)
T1 construct: purchased Haematologic Technologies (Essex Junction, VT)
T1 sequence (P00488 39-732 limits assumed): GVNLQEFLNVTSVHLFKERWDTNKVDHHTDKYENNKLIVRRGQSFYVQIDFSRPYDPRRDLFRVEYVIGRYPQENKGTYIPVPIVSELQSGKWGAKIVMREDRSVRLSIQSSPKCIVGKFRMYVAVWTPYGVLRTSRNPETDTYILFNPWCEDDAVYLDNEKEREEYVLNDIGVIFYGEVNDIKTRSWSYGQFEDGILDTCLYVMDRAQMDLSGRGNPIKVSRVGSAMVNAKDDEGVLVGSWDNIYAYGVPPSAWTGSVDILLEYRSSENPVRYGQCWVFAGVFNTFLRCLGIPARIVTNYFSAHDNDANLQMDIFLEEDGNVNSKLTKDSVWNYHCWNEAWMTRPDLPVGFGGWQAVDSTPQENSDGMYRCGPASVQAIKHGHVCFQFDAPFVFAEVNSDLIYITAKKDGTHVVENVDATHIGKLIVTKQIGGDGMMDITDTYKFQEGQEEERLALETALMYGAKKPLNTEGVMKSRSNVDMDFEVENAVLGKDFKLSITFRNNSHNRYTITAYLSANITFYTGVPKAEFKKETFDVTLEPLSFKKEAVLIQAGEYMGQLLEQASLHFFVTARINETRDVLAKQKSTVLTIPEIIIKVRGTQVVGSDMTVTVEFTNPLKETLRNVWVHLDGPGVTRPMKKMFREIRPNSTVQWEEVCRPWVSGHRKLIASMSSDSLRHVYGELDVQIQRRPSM
Experiment: bisubstrate, fluorescence-based transglutamination assay (dansylcadaverine / N,N-dimethylcasein)
Assay type: biochemical
Details: pH 8.0, 37°C; for inhibition at 20 µM: pH 8, 20 μM
Experimental: The library of sulfated molecules was screened for inhibition of human FXIIIa using a modified bisubstrate, fluorescence-based transglutamination assay, as described earlier. Dansylcadaverine and N,N-dimethyl-casein were used as two substrates, which upon FXIIIa-dependence conjugation show a marked increase in fluorescence at 550 nm (λEX = 360 nm). Initial screening was performed at 200 μM NSGM concentration (1–15) or 50–1110 μM GAG concentration (16–22) (Table 1). At these levels, none of GAGs inhibited FXIIIa by more than 5%. […] Trimeric scaffolds 13 and 14 inhibited FXIIIa by 94% and 29%, respectively. […] To identify promising NSGMs from these, screening was performed at a lower concentration (20 μM).
Direct inhibition of human FXIIIa was measured spectrofluorometrically by a bisubstrate, fluorescence-based transglutamination assay at pH 8.0 and 37°C on a microplate reader (FlexStation III, Molecular Devices) (modified from earlier reports). Briefly, to each well of a 96-well microplate containing 80 μL of 50 mM TrisHCl buffer, pH 8.0, containing 100 mM NaCl, 10 mM CaCl2, and 2 mg/mL dimethylcasein was added 5 μL potential NSGM-based inhibitor (0–20 mM aqueous solution) or vehicle, 5 μL DTT (20 mM), and 5 μL enzyme (0.12–1.2 μM) at 37°C. After 5 min incubation, 5 μL of dansylcadaverine (2.5 mM) was rapidly added and the residual enzyme activity was measured from the initial rate of increase in RFU (λEM = 550 nm, λEX = 360 nm). Relative residual enzyme activity (Y) as a function of the concentration of sulfated molecule was fitted using logistic Eq 1 to obtain the potency (IC50), efficacy (ΔY) and Hill slope (HS) of inhibition. In this equation, YM and Yo are the maximal and minimal values of Y.

[1] = pH 8, 200 μM, read-out: FXIIIa inhibition at 200 μM (%)

| SMILES | inhibition at 200 µM [1] [%] | inhibition at 20 µM [%] | other results |
| --- | --- | --- | --- |
| NC(=O)CI [IAA, Iodoacetamide, reference compound] | – | – | HS, Hill slope (FXIIIa): 0.8 ± 0.2; IC50: 2900 ± 400 nM; ΔY, efficacy (FXIIIa): 105 ± 10%; ΔY, efficacy (FXIIIa) (listed as Iodoacetamide): ~ 100% |
| O=c1c(OS(=O)(=O)O)c(-c2ccc(OS(=O)(=O)O)c(OS(=O)(=O)O)c2)oc2cc(OS(=O)(=O)O)cc(OS(=O)(=O)O)c12 [Molecule 1] | – | – | FXIIIa inhibition at 200 μM (%): 31 ± 4^b %; inhibition at 200 µM (pH 8, read-out: FXIIIa inhibition at 200 μM (%), 200 μM): ~30% |
| O=S(=O)(O)Oc1cc2c(c(OS(=O)(=O)O)c1)C[C@H](OS(=O)(=O)O)[C@@H](c1ccc(OS(=O)(=O)O)c(OS(=O)(=O)O)c1)O2 [Molecule 2] | ~30 | – | FXIIIa inhibition at 200 μM (%): 32 ± 6% |
| O=c1c(OS(=O)(=O)O)c(-c2ccc(OS(=O)(=O)O)c(OS(=O)(=O)O)c2)oc2cc(OS(=O)(=O)O)cc(OCCOc3cc(OS(=O)(=O)O)cc4oc(-c5ccc(OS(=O)(=O)O)c(OS(=O)(=O)O)c5)c(OS(=O)(=O)O)c(=O)c34)c12 [Molecule 3] | 65 ± 3 | 27 to 40 | FXIIIa inhibition at 20 μM (%) (20 μM): 26 ± 2% |
| O=c1c(OS(=O)(=O)O)c(-c2ccc(OS(=O)(=O)O)c(OS(=O)(=O)O)c2)oc2cc(OS(=O)(=O)O)cc(OCCCOc3cc(OS(=O)(=O)O)cc4oc(-c5ccc(OS(=O)(=O)O)c(OS(=O)(=O)O)c5)c(OS(=O)(=O)O)c(=O)c34)c12 [Molecule 4] | 67 ± 5 | – | – |
| O=c1c(OS(=O)(=O)O)c(-c2ccc(OS(=O)(=O)O)c(OS(=O)(=O)O)c2)oc2cc(OS(=O)(=O)O)cc(OCCCCOc3cc(OS(=O)(=O)O)cc4oc(-c5ccc(OS(=O)(=O)O)c(OS(=O)(=O)O)c5)c(OS(=O)(=O)O)c(=O)c34)c12 [Molecule 6] | 89 ± 5 | 40 ± 3 | – |
| O=c1c(OS(=O)(=O)O)c(-c2ccc(OS(=O)(=O)O)c(OS(=O)(=O)O)c2)oc2cc(OS(=O)(=O)O)cc(OC/C=C/COc3cc(OS(=O)(=O)O)cc4oc(-c5ccc(OS(=O)(=O)O)c(OS(=O)(=O)O)c5)c(OS(=O)(=O)O)c(=O)c34)c12 [Molecule 7] | 58 ± 4 | 31 ± 3 | – |
| O=c1c(OS(=O)(=O)O)c(-c2ccc(OS(=O)(=O)O)c(OC/C=C/COc3cc(-c4oc5cc(OS(=O)(=O)O)cc(O)c5c(=O)c4OS(=O)(=O)O)ccc3OS(=O)(=O)O)c2)oc2cc(OS(=O)(=O)O)cc(O)c12 [Molecule 8] | 84 ± 5 | – | – |
| CO[C@H]1O[C@H](COS(=O)(=O)O)[C@@H](O[C@@H]2O[C@@H](C(=O)O)[C@@H](O[C@H]3O[C@H](COS(=O)(=O)O)[C@@H](O[C@@H]4O[C@H](C(=O)O)[C@@H](O[C@H]5O[C@H](COS(=O)(=O)O)[C@@H](O)[C@H](O)[C@H]5NS(=O)(=O)O)[C@H](O)[C@H]4O)[C@H](OS(=O)(=O)O)[C@H]3NS(=O)(=O)O)[C@H](O)[C@H]2OS(=O)(=O)O)[C@H](O)[C@H]1NS(=O)(=O)O [Molecule 18, fondaparinux, reference compound] | – | – | inhibition at 360 µM (pH 8, at 360 μM): ~0% |
| O=S(=O)(O)OC[C@H]1O[C@@](COS(=O)(=O)O)(O[C@H]2O[C@H](COS(=O)(=O)O)[C@@H](OS(=O)(=O)O)[C@H](OS(=O)(=O)O)[C@H]2OS(=O)(=O)O)[C@@H](OS(=O)(=O)O)[C@@H]1OS(=O)(=O)O [Molecule 22, sucrose octasulfate, reference compound] | ~17 | – | – |
